The nature of experiment [1]: (§1) KINOMEscan Enzyme Binding Assays: Kinase enzyme binding affinities of compounds disclosed herein were determined using the KINOMEscan technology performed by DiscoveRx Corporation, San Diego, Calif., USA (www.kinomescan.com).
The target in experiment [2] is Phosphatidylinositol 4,5-bisphosphate 3-kinase catalytic subunit gamma isoform (Homo sapiens, UniProt P48736). The experiment is described as §1.
For experiment [3], the target named is T1, Phosphatidylinositol 4,5-bisphosphate 3-kinase catalytic subunit delta isoform (Homo sapiens, UniProt O00329).
T1 sequence (O00329 whole entry): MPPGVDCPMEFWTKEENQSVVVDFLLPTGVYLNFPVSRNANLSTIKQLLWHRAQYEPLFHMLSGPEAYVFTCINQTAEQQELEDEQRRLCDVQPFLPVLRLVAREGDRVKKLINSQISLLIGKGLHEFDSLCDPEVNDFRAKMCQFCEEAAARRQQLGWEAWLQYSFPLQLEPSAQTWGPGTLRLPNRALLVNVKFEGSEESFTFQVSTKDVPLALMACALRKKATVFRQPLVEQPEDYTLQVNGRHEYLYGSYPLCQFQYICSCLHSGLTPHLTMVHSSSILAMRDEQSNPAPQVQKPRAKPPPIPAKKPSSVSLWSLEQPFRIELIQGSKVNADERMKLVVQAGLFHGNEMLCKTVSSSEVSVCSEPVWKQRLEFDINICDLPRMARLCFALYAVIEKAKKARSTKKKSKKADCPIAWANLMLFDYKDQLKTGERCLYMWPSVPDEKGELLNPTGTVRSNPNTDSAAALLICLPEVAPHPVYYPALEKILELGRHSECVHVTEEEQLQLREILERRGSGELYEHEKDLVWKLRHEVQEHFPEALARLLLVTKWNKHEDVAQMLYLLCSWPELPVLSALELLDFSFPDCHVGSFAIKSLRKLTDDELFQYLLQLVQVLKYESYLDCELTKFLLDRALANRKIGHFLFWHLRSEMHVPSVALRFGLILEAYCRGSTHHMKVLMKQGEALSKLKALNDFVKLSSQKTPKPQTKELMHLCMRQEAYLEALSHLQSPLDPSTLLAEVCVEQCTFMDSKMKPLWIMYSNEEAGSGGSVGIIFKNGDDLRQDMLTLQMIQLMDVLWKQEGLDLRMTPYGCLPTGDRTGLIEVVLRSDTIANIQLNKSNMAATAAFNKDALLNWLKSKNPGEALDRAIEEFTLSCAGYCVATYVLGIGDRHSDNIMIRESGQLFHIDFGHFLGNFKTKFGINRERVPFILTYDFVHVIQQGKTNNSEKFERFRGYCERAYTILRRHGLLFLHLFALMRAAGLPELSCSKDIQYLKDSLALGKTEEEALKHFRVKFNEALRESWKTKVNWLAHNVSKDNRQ
The experiment is described as §1.

Chain of Phosphatidylinositol 4,5-bisphosphate 3-kinase catalytic subunit gamma isoform (P48736 whole entry, canonical isoform): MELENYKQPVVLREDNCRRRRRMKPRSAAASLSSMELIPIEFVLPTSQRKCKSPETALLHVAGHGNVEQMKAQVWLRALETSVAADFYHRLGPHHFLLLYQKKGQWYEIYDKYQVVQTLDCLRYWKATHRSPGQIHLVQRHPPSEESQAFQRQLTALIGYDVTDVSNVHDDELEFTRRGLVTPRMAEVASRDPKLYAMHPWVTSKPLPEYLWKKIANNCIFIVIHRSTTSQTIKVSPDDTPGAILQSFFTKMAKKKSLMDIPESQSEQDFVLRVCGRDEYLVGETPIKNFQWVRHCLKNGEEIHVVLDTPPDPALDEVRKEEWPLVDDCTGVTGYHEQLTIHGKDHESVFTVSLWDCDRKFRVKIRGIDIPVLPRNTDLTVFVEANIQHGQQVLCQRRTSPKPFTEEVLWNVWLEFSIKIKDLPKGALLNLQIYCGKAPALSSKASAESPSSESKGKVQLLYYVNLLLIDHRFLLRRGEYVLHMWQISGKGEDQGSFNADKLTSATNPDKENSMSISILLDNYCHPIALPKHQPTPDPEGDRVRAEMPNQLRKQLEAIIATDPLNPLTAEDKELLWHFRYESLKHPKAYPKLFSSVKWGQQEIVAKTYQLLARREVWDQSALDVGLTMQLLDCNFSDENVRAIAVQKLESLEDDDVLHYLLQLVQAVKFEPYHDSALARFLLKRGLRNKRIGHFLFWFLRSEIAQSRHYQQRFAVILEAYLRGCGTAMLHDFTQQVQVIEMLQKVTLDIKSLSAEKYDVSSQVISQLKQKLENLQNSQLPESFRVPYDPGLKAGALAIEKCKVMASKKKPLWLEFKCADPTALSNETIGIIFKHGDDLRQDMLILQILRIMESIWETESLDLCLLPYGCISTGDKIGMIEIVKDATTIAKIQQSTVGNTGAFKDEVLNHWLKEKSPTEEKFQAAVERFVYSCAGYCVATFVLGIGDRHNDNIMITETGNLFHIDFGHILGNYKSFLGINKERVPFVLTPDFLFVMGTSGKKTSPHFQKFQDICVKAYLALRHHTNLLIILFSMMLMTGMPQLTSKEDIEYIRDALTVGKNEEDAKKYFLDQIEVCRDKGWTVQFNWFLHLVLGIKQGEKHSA

The compound `CC(CO)NCc1c(F)cccc1Cc1c(CO)nc2c(N)cc(N3CCOCC3)nn12` (stereo not given) gave a Kd in experiment [1] of over 30200 nM.

As to `CCc1c(F)cccc1Cc1c(CNCCO)nc2c(N)cc(N3CCOCC3)nn12`, the Kd in experiment [2] worked out at 724 nM; in experiment [3], 427 nM.

With `Cc1c(Cc2c(CO)nc3c(-c4cnc[nH]4)cc(N4CCOCC4)nn23)cccc1C(F)(F)F`, the Kd in experiment [2] amounted to 1760 nM; in experiment [3] it was 80 nM.

For the origin of these results see ChEMBL document CHEMBL5725742, “Imidazopyridazine derivatives as PI3KB inhibitors” (2018).
